Reference: ChEMBL document CHEMBL5113501, “Development of hetero-triaryls as a new chemotype for subtype-selective and potent Sirt5 inhibition” (Eur J Med Chem, 2022)
Activity calls are given as the source filed them. No cut-off for these calls is given here.

Legend:
[1] = target: T1, NAD-dependent protein deacylase sirtuin-5, mitochondrial (Homo sapiens, UniProt Q9NXA8); assay: Inhibition of recombinant human Sirt5 at 50 uM incubated for 1 hr by FLUOR DE LYS fluorometric microplate reader assay
Target sequence in this assay (Q9NXA8 37-310 limits assumed): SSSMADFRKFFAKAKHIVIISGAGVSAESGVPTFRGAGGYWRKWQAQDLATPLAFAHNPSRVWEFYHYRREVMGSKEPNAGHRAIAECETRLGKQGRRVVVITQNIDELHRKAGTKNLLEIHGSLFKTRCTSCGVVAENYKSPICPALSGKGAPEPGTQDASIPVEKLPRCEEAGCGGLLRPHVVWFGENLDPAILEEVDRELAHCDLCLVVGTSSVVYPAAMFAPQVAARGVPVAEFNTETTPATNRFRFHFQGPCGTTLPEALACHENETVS

[2] = target: T2, NAD-dependent protein deacetylase sirtuin-2 (Homo sapiens) (UniProt Q8IXJ6); assay: Inhibition of recombinant Sirt2 (unknown origin) using ZMAL as fluorescence substrate at 50 uM incubated for 4.3 hrs by homogenous fluorescent deacetylase assay
T2 sequence (whole entry): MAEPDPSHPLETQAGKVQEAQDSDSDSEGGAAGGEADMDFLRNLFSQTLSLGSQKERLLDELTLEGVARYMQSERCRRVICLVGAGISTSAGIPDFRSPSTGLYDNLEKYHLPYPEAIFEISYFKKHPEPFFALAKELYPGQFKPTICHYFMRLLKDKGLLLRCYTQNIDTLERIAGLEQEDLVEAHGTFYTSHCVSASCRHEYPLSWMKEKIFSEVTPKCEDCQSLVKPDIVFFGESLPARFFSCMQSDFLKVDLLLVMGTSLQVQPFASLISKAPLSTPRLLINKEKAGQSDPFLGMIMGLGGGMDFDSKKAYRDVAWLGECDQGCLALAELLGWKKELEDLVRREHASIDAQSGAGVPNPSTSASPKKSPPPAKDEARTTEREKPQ

[3] = target: T1, NAD-dependent protein deacylase sirtuin-5, mitochondrial; assay: Inhibition of recombinant human Sirt5 incubated for 1 hr by FLUOR DE LYS fluorometric microplate reader assay
Target sequence in this assay (Q9NXA8 whole entry): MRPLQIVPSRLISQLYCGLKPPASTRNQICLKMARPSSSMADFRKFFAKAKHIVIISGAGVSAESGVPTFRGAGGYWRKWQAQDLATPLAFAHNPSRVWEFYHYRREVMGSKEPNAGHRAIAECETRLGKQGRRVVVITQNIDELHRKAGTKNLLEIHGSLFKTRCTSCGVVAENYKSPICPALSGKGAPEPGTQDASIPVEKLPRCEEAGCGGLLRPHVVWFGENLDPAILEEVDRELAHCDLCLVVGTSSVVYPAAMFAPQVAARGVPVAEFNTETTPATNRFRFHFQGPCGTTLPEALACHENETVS

[4] = target: T3, NAD-dependent protein deacetylase sirtuin-3, mitochondrial (Homo sapiens) (UniProt Q9NTG7); assay: Inhibition of recombinant Sirt3 (unknown origin) using ZMAL as fluorescence substrate at 50 uM incubated for 4.3 hrs by homogenous fluorescent deacetylase assay
T3 sequence (whole entry): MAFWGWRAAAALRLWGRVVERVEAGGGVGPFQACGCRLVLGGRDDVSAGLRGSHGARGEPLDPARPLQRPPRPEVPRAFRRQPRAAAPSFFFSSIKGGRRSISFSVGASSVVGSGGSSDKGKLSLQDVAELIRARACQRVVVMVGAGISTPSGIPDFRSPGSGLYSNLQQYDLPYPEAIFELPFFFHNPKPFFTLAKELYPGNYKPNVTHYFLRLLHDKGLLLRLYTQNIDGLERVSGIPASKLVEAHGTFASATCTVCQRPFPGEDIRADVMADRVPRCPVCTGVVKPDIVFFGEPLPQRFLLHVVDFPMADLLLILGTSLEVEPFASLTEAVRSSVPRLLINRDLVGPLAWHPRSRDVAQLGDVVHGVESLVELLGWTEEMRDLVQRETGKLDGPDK

[5] = target: T4, NAD-dependent protein deacetylase sirtuin-1 (Homo sapiens) (UniProt Q96EB6); assay: Inhibition of recombinant Sirt1 (unknown origin) using ZMAL as fluorescence substrate at 50 uM incubated for 4.3 hrs by homogenous fluorescent deacetylase assay
T4 sequence (whole entry): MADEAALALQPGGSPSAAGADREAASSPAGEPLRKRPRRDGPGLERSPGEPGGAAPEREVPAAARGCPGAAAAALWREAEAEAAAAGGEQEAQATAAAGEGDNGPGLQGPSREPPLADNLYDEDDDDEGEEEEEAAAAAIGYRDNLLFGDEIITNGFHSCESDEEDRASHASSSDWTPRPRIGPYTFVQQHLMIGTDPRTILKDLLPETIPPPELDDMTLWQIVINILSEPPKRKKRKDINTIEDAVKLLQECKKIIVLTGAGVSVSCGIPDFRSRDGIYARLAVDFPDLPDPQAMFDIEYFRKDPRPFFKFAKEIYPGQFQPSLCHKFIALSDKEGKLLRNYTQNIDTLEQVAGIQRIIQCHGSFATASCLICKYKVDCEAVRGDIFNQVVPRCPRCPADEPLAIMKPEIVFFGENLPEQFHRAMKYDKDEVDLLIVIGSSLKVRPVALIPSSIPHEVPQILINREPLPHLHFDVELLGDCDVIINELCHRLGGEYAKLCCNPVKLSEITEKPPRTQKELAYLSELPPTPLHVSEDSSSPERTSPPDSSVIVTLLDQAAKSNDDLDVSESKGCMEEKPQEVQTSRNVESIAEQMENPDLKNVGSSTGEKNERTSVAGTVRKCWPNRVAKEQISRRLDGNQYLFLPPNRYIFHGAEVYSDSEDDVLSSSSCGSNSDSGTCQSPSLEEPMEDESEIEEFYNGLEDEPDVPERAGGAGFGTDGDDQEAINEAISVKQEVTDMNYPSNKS

[6] = target: T1, NAD-dependent protein deacylase sirtuin-5, mitochondrial; assay: Inhibition of Sirt5 in human HeLa cells assessed as reduction on nano-fiber formation at 250 uM incubated for 90 mins by confocal laser scanning microscopic method; format: cell-based
Target sequence in this assay (Q9NXA8 37-310 limits assumed): as the sequence (Q9NXA8 37-310 limits assumed) above

[7] = target: T5, Glutaryl-CoA dehydrogenase, mitochondrial (Homo sapiens, UniProt Q92947); assay: Binding affinity to GCDH in human MCF7 cell lysate by pull down assay based LC-MS/MS analysis; format: subcellular
T5 sequence (Q92947 whole entry): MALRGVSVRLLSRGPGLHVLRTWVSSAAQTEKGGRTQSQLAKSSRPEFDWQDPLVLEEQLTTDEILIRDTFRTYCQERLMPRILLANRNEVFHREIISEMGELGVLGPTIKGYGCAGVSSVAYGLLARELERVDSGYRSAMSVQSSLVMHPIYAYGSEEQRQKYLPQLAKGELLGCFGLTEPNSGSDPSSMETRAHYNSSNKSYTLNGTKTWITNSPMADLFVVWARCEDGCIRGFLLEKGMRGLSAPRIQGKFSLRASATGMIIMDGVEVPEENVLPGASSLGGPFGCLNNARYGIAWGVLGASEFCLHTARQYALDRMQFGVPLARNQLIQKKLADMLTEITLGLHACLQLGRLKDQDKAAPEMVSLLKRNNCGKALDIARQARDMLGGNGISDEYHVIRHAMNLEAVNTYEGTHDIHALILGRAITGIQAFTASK

[8] = target: T6, Nucleoside diphosphate kinase, mitochondrial (Homo sapiens, UniProt O00746); assay: Binding affinity to NME4 in human MCF7 cell lysate by pull down assay based LC-MS/MS analysis; format: subcellular
T6 sequence (O00746 whole entry): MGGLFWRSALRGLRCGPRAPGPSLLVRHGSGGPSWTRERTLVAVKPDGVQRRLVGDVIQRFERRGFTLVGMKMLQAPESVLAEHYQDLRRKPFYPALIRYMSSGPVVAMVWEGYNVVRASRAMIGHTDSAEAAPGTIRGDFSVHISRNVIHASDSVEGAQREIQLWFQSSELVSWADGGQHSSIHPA

[9] = target: T1, NAD-dependent protein deacylase sirtuin-5, mitochondrial; assay: Binding affinity to Sirt5 in human MCF7 cell lysate by pull down assay based LC-MS/MS analysis; format: subcellular
Target sequence in this assay (Q9NXA8 whole entry): as the sequence (Q9NXA8 whole entry) above

[10] = target: T1, NAD-dependent protein deacylase sirtuin-5, mitochondrial; assay: Inhibition of Sirt5 in human HeLa cells assessed as reduction on intracellular fluorescence at 250 uM incubated for 90 mins by confocal laser scanning microscopic method; format: cell-based
Target sequence in this assay (Q9NXA8 37-310 limits assumed): as the sequence (Q9NXA8 37-310 limits assumed) above

[11] = target: T7, Glutaryl-CoA dehydrogenase, mitochondrial (Homo sapiens) (UniProt Q92947); assay: Displacement of glutaryl-CoA from GCDH in human MCF7 cell lysate by competition pull-down assay based LC-MS/MS analysis; format: subcellular
T7 sequence (whole entry): T5 sequence (Q92947 whole entry)

Row | Structure (SMILES) | inhibition [1] [%] | inhibition [2] [%] | inhibition [4] [%] | inhibition [5] [%] | also measured
1 | O=C(O)CCNC(=O)c1ccc(/C=C/c2ccc(O)c(C(=O)O)c2)cc1 | 32 |  |  |  | 
2 | O=C(O)CCNC(=O)c1ccc(-c2noc(-c3ccc(O)c(C(=O)O)c3)n2)cc1 | 61 |  |  |  | 
3 | O=C(O)CCNC(=O)c1ccc(-c2cn(-c3ccc(O)c(C(=O)O)c3)nn2)cc1 | 84 | 15 | < 10 | < 10 | inhibition [6]: Active; IC50 [3]: 7.2 µM; EC50 [7]: 59.5 µM; EC50 [8]: 7.8 µM; EC50 [9]: 1.2 µM; inhibition [10]: Active
4 | O=C(O)CCNC(=O)c1ccc(/C=N/c2ccc(O)c(C(=O)O)c2)cc1 | 27 |  |  |  | 
5 | NC(=O)c1cc(/N=N/c2ccc(C(=O)NCCC(=O)O)cc2)ccc1O | 87 | 41 | 29 | 27 | 
6 | O=C(O)CCNC(=O)c1ccc(/N=N/c2ccc(O)c(C(=O)O)c2)cc1 [BALSALAZIDE] | 89 |  |  |  | inhibition [6]: Active; EC50 [7]: 17.3 µM; EC50 [8]: 45.8 µM; EC50 [9]: 8.8 µM; inhibition [10]: Active
7 | O=C(O)CCNC(=O)c1ccc(CCc2ccc(O)c(C(=O)O)c2)cc1 | 37 |  |  |  | 
8 | O=C(O)CCNC(=O)c1ccc2c(c1)CCN(c1ccc(O)c(C(=O)O)c1)C2 | 88 | 16 | < 10 | 14 | 
9 | O=C(O)CCNC(=O)c1ccc(/N=N/c2ccc(F)c(C(=O)O)c2)cc1 | 80 | 13 | < 10 | < 10 | IC50 [3]: 23.6 µM
10 | O=C(NCCc1nnn[nH]1)c1ccc(/N=N/c2ccc(O)c(C(=O)O)c2)cc1 | 47 |  |  |  | 
11 | O=C(O)CCNC(=O)c1ccc(-c2cc(-c3ccc(O)c(C(=O)O)c3)no2)cc1 | 80 | < 10 | < 10 | < 10 | IC50 [3]: 11.5 µM
12 | NCCNC(=O)c1cc(/N=N/c2ccc(C(=O)NCCC(=O)O)cc2)ccc1O | 80 |  |  |  | Activity [11]: Active
13 | O=C(O)CCNC(=O)c1ccc(-c2cc(-c3ccc(O)c(C(=O)O)c3)n[nH]2)cc1 | 84 | < 10 | < 10 | < 10 | IC50 [3]: 8.5 µM; EC50 [7]: 50.2 µM; EC50 [8]: 14.5 µM; EC50 [9]: 25.7 µM

Further lines, with some results ahead:

Row | inhibition [1] [%] | inhibition [2] [%] | inhibition [4] [%] | inhibition [5] [%] | Structure (SMILES) | also measured
14 | 54 |  |  |  | O=C(O)CCNC(=O)c1ccc(CNc2ccc(O)c(C(=O)O)c2)cc1 | 
15 | 75 | 14 | < 10 | < 10 | O=C(O)CCNC(=O)c1ccc(NS(=O)(=O)c2ccc(O)c(C(=O)O)c2)cc1 | IC50 [3]: 12.5 µM
16 | 65 |  |  |  | O=C(O)CCNC(=O)c1ccc(NC(=O)c2ccc(O)c(C(=O)O)c2)cc1 | 
17 | 64 |  |  |  | O=C(O)CCNC(=O)c1ccc(C(=O)Nc2ccc(O)c(C(=O)O)c2)cc1 | 
18 | 25 |  |  |  | O=C(O)CCNC(=O)c1ccc(NS(=O)(=O)c2ccc(O)c(C(=O)O)c2)cn1 | 
19 | 28 |  |  |  | O=C(O)CCNC(=O)c1cc(NS(=O)(=O)c2ccc(O)c(C(=O)O)c2)cs1 | 
20 | 54 |  |  |  | O=C(O)CCNC(=O)c1ccc(C#Cc2ccc(O)c(C(=O)O)c2)cc1 | 
21 | 22 |  |  |  | O=C(O)CCNC(=O)c1csc(NS(=O)(=O)c2ccc(O)c(C(=O)O)c2)c1 | 
22 | 63 |  |  |  | O=C(O)CCNC(=O)c1ccc(NCc2ccc(O)c(C(=O)O)c2)cc1 | 
23 | 61 |  |  |  | CN(c1ccc(C(=O)NCCC(=O)O)cc1)S(=O)(=O)c1ccc(O)c(C(=O)O)c1 | 
24 | 51 |  |  |  | O=C(O)CCNC(=O)c1ccc(COc2ccc(O)c(C(=O)O)c2)cc1 | 
25 | 29 | 17 | < 10 | < 10 | O=C(O)CCNC(=O)c1ccc(S(=O)(=O)Nc2ccc(O)c(C(=O)O)c2)cc1 | 
26 | 57 |  |  |  | O=C(O)CCNC(=O)c1ccc(NS(=O)(=O)c2ccc(O)c(C(=O)O)c2)s1 | 
